The subject of one experiment is CCRF-CEM. Briefly: Cytotoxicity against human CCRF-CEM cells assessed as reduction in cell viability measured after 72 hrs by MTS assay. The class given is functional, cell-based.
The next experiment relates to CEM-DNR. Briefly: Cytotoxicity against daunorubicin resistant human CEM-DNR cells assessed as reduction in cell viability measured after 72 hrs by MTS assay. Type of experiment: functional, cell-based.
The test system of the next experiment is HCT-116. Nature of the experiment: Cytotoxicity against human HCT-116 cells assessed as reduction in cell viability measured after 72 hrs by MTS assay. To be noted: HCT-116, 72 h. Type of experiment: functional, cell-based.
A short description of experiment [1]: Cytotoxicity against human HCT116 p53-null cells assessed as reduction in cell viability measured after 72 hrs by MTS assay. Type of experiment: functional, cell-based.
The next experiment deals with K562. Briefly: Cytotoxicity against human K562 cells assessed as reduction in cell viability measured after 72 hrs by MTS assay. Type of experiment: functional, cell-based. To be noted: K562, 72 h.
The nature of experiment [2]: Cytotoxicity against paclitaxel resistant human K562-Tax cells assessed as reduction in cell viability measured after 72 hrs by MTS assay. The class given is functional, cell-based.
For a further experiment, the system named is A549. Nature of the experiment: Cytotoxicity against human A549 cells assessed as reduction in cell viability measured after 72 hrs by MTS assay. The class given is functional, cell-based. The conditions noted are these: A549, 72 h.
For another experiment, the system named is U2OS. Briefly: Cytotoxicity against human U2OS cells assessed as reduction in cell viability measured after 72 hrs by MTS assay. The class given is functional, cell-based.
For a further experiment, the system named is BJ. Nature of the experiment: Cytotoxicity against human BJ cells assessed as reduction in cell viability measured after 72 hrs by MTS assay. The class given is cell-based.
The test system of a further experiment is MRC5. Briefly: Cytotoxicity against human MRC5 cells assessed as reduction in cell viability measured after 72 hrs by MTS assay. Type of experiment: cell-based. The conditions noted are these: MRC5, 72 h.

Where only a bound is given, the exact number is not on record here.

Consider `C=C(/C=C/c1cccc(I)c1)[C@@H]1CC[C@]2(C(=O)O)CC[C@]3(C)[C@H](CC[C@@H]4[C@@]5(C)CC[C@H](O)C(C)(C)[C@@H]5CC[C@]43C)[C@@H]12`, for which the IC50 is 11.6 µM in the experiment on CCRF-CEM; above 50 µM in the experiment on CEM-DNR; 27.3 µM with HCT-116; 29.5 µM in experiment [1]; 25.2 µM with K562; 48.4 µM in [2]. In addition, the IC50 in the experiment with A549 is 38.7 µM; with U2OS it was 28.4 µM; with BJ, above 50 µM; in the experiment with MRC5 it was above 50 µM.

Consider `C=C(/C=C/c1ccc(C)cc1)[C@@H]1CC[C@]2(C(=O)O)CC[C@]3(C)[C@H](CC[C@@H]4[C@@]5(C)CC[C@H](O)C(C)(C)[C@@H]5CC[C@]43C)[C@@H]12`, for which the IC50 in the experiment with CCRF-CEM was 5.9 µM; in the experiment on CEM-DNR, 26.1 µM; with HCT-116, 21.4 µM; in experiment [1], 18.2 µM; in the experiment on K562, above 50 µM; in experiment [2], 26.3 µM. Further, the IC50 in the experiment with A549, with U2OS, in the experiment with BJ and in the experiment with MRC5 was above 50 µM in each case.

As for `C=C(/C=C/c1cccc([N+](=O)[O-])c1)[C@@H]1CC[C@]2(C(=O)O)CC[C@]3(C)[C@H](CC[C@@H]4[C@@]5(C)CC[C@H](O)C(C)(C)[C@@H]5CC[C@]43C)[C@@H]12`, the IC50 with CCRF-CEM was 12.4 µM; with CEM-DNR, 25.3 µM; in the experiment on HCT-116 it was 37.5 µM; in experiment [1], 35.5 µM; in the experiment with K562 it was above 50 µM; in experiment [2] it was 24.3 µM. The IC50 in the experiment on A549 was 48.8 µM; in the experiment on U2OS it was 29.3 µM; in the experiment on BJ, above 50 µM; with MRC5 it was 45.1 µM.

For the compound `C=C(/C=C/c1ccc(Br)cc1)[C@@H]1CC[C@]2(C(=O)O)CC[C@]3(C)[C@H](CC[C@@H]4[C@@]5(C)CC[C@H](O)C(C)(C)[C@@H]5CC[C@]43C)[C@@H]12`, the IC50 in the experiment on CCRF-CEM is 6.5 µM; in the experiment on CEM-DNR, 28.9 µM; in the experiment with HCT-116, 33.2 µM; in experiment [1], 31.8 µM; in the experiment on K562, above 50 µM; in experiment [2] it was 29.3 µM. Moreover, the IC50 is above 50 µM in the experiment on A549, 27 µM with U2OS, above 50 µM in the experiment on BJ and 35.2 µM in the experiment with MRC5.

For the compound `C=C(/C=C/c1ccncc1)[C@@H]1CC[C@]2(C(=O)O)CC[C@]3(C)[C@H](CC[C@@H]4[C@@]5(C)CC[C@H](O)C(C)(C)[C@@H]5CC[C@]43C)[C@@H]12`, the IC50 with CCRF-CEM was determined as 5.9 µM; in the experiment on CEM-DNR, 20.5 µM; in the experiment with HCT-116 it was 35 µM; in [1], 30.6 µM; with K562 it was 43.4 µM; in experiment [2], 20.6 µM. Also, the IC50 in the experiment with A549 was 46 µM; with U2OS, 29.7 µM; in the experiment on BJ, above 50 µM; in the experiment with MRC5, above 50 µM.

On to `C=C(/C=C/c1cc(OC)cc(OC)c1)[C@@H]1CC[C@]2(C(=O)O)CC[C@]3(C)[C@H](CC[C@@H]4[C@@]5(C)CC[C@H](O)C(C)(C)[C@@H]5CC[C@]43C)[C@@H]12`, for which the IC50 amounted to 10 µM in the experiment with CCRF-CEM; 13.7 µM in the experiment on CEM-DNR; 17.3 µM in the experiment with HCT-116; 20.8 µM in experiment [1]; 22.2 µM in the experiment with K562; 16 µM in [2]. The IC50 is 19 µM in the experiment with A549, 22.3 µM with U2OS, 47.6 µM in the experiment on BJ and 29.2 µM in the experiment on MRC5.

With `C=C(/C=C/c1ccccc1F)[C@@H]1CC[C@]2(C(=O)O)CC[C@]3(C)[C@H](CC[C@@H]4[C@@]5(C)CC[C@H](O)C(C)(C)[C@@H]5CC[C@]43C)[C@@H]12`, the IC50 with CCRF-CEM worked out at 15.4 µM; in the experiment on CEM-DNR, 23.2 µM; with HCT-116 it was 24.5 µM; in [1], 22.6 µM; with K562 it was 21.8 µM; in [2] it was 25.1 µM. For the same compound, the IC50 worked out at 29.7 µM in the experiment with A549, 27.7 µM in the experiment on U2OS, 42.1 µM in the experiment with BJ and 31.7 µM in the experiment on MRC5.

Turning to `C=C(/C=C/c1ccc2ccccc2c1)[C@@H]1CC[C@]2(C(=O)O)CC[C@]3(C)[C@H](CC[C@@H]4[C@@]5(C)CC[C@H](O)C(C)(C)[C@@H]5CC[C@]43C)[C@@H]12`, the IC50 in the experiment on CCRF-CEM is 11.8 µM; in the experiment on CEM-DNR, 47 µM; in the experiment on HCT-116, 30.2 µM; in [1], 26.3 µM; in the experiment on K562, above 50 µM; in [2], 45.8 µM. Further, the IC50 was 32.9 µM with A549, 27.2 µM with U2OS, above 50 µM with BJ and 43.1 µM in the experiment on MRC5.

With `C=C(/C=C/c1ccc(I)cc1)[C@@H]1CC[C@]2(C(=O)O)CC[C@]3(C)[C@H](CC[C@@H]4[C@@]5(C)CC[C@H](O)C(C)(C)[C@@H]5CC[C@]43C)[C@@H]12`, the IC50 is 16 µM in the experiment on CCRF-CEM; above 50 µM with CEM-DNR; 30.7 µM in the experiment with HCT-116; 33.3 µM in experiment [1]; above 50 µM with K562; above 50 µM in experiment [2]. Further, the IC50 was above 50 µM with A549, 32.2 µM with U2OS, above 50 µM in the experiment with BJ and 41.2 µM in the experiment on MRC5.

With `C=C(/C=C/c1c(F)c(F)c(F)c(F)c1F)[C@@H]1CC[C@]2(C(=O)O)CC[C@]3(C)[C@H](CC[C@@H]4[C@@]5(C)CC[C@H](O)C(C)(C)[C@@H]5CC[C@]43C)[C@@H]12`, the IC50 with CCRF-CEM is 22.1 µM; in the experiment on CEM-DNR it was above 50 µM; in the experiment on HCT-116 it was 32.2 µM; in [1] it was 36.3 µM; with K562 it was 29.8 µM; in experiment [2], above 50 µM. In addition, the IC50 in the experiment with A549 is 32.2 µM; in the experiment with U2OS, 30.2 µM; in the experiment on BJ, above 50 µM; with MRC5 it was 43.2 µM.

For the compound `C=C(/C=C/C1CCCCC1)[C@@H]1CC[C@]2(C(=O)O)CC[C@]3(C)[C@H](CC[C@@H]4[C@@]5(C)CC[C@H](O)C(C)(C)[C@@H]5CC[C@]43C)[C@@H]12`, the IC50 in the experiment on CCRF-CEM was 8 µM; in the experiment on CEM-DNR it was 45.7 µM; in the experiment with HCT-116 it was 15.2 µM; in experiment [1] it was above 50 µM; in the experiment on K562 it was above 50 µM; in [2], 43.6 µM. In addition, the IC50 in the experiment on A549, in the experiment with U2OS, in the experiment with BJ and in the experiment on MRC5 was above 50 µM each time.

Regarding `C=C(/C=C/c1cccc(C#N)c1)[C@@H]1CC[C@]2(C(=O)O)CC[C@]3(C)[C@H](CC[C@@H]4[C@@]5(C)CC[C@H](O)C(C)(C)[C@@H]5CC[C@]43C)[C@@H]12`, the IC50 was 12.1 µM with CCRF-CEM; 21.6 µM in the experiment with CEM-DNR; 35.1 µM in the experiment with HCT-116; 29.4 µM in experiment [1]; above 50 µM in the experiment with K562; 22.7 µM in experiment [2]. Further, the IC50 in the experiment with A549, in the experiment with U2OS, in the experiment on BJ and with MRC5 was above 50 µM throughout.

Take `C=C(/C=C/c1ccc(C#N)cc1)[C@@H]1CC[C@]2(C(=O)O)CC[C@]3(C)[C@H](CC[C@@H]4[C@@]5(C)CC[C@H](O)C(C)(C)[C@@H]5CC[C@]43C)[C@@H]12`: the IC50 in the experiment on CCRF-CEM was 23.8 µM; in the experiment with CEM-DNR, 27 µM; with HCT-116, 39.1 µM; in [1], 43.3 µM; in the experiment on K562, above 50 µM; in [2], 27.2 µM. The concentration for half-maximal inhibition (IC50) is above 50 µM with A549, 44.1 µM in the experiment on U2OS, above 50 µM in the experiment with BJ and 49.7 µM with MRC5.

Regarding `C=C(/C=C/c1ccccc1C(F)(F)F)[C@@H]1CC[C@]2(C(=O)O)CC[C@]3(C)[C@H](CC[C@@H]4[C@@]5(C)CC[C@H](O)C(C)(C)[C@@H]5CC[C@]43C)[C@@H]12`, the IC50 in the experiment with CCRF-CEM was 21.8 µM; with CEM-DNR it was above 50 µM; in the experiment on HCT-116, 33 µM; in experiment [1] it was 36.1 µM; with K562 it was 48.7 µM; in experiment [2] it was above 50 µM. The IC50 is 37 µM in the experiment with A549, 29.6 µM with U2OS, above 50 µM in the experiment with BJ and above 50 µM in the experiment with MRC5.

Take `C=C(/C=C/c1ccc(F)c(Cl)c1)[C@@H]1CC[C@]2(C(=O)O)CC[C@]3(C)[C@H](CC[C@@H]4[C@@]5(C)CC[C@H](O)C(C)(C)[C@@H]5CC[C@]43C)[C@@H]12`: the IC50 in the experiment on CCRF-CEM amounted to 5.5 µM; in the experiment on CEM-DNR, 27.8 µM; with HCT-116 it was 21.8 µM; in [1], 20.8 µM; in the experiment with K562 it was 40.6 µM; in [2], 25.2 µM. Moreover, the IC50 in the experiment with A549 is 45.5 µM; in the experiment on U2OS, 26.5 µM; in the experiment on BJ, above 50 µM; in the experiment with MRC5, 32.4 µM.

Regarding `C=C(/C=C/c1ccc(C(=O)O)cc1)[C@@H]1CC[C@]2(C(=O)O)CC[C@]3(C)[C@H](CC[C@@H]4[C@@]5(C)CC[C@H](O)C(C)(C)[C@@H]5CC[C@]43C)[C@@H]12`, the IC50 in the experiment with CCRF-CEM was 17.5 µM; in the experiment with CEM-DNR it was 32 µM; with HCT-116, 39 µM; in experiment [1] it was 42.5 µM; in the experiment on K562, above 50 µM; in experiment [2], 39.2 µM. The IC50 in the experiment on A549 is above 50 µM; in the experiment on U2OS it was 49 µM; in the experiment on BJ, above 50 µM; in the experiment with MRC5 it was above 50 µM.
